Measured values as given in patent publication US6106744A, “Photochromic pyrano-fused naphthopyrans” (PPG Industries Ohio, Inc., priority 1997, dated 2000).

Tests used:
[1] = Photochromic response of test squares on an optical bench; type: physicochemical; conditions: for Bleach Rate T 1/2: time to one half the highest absorbance at room temperature (72° F., 22.2° C.) after removal of activating light; for Sensitivity ΔOD/min: first five (5) seconds of UV exposure, expressed per minute, 72° F. (22.2° C.), 0.15 to 0.20 mW/cm^2
Experimental: (§1) Testing was done with the photochromic compounds prepared in Examples 1, 2, 3 and 4 in the following manner. A quantity of each photochromic compound calculated to yield a 1.5×10^-3 molal solution was added to a flask containing 50 grams of a monomer blend of 4 parts ethoxylated bisphenol A dimethacrylate (BPA 2EO DMA), 1 part poly(ethylene glycol) 600 dimethacrylate, and 0.033 weight percent 2,2'-azobis(2-methyl propionitrile) (AIBN). Each photochromic compound was dissolved into the monomer blend by stirring and gentle heating. After a clear solution was obtained, it was poured into a flat sheet mold having the interior dimensions of 2.2 mm×6 inches (15.24 cm)×6 inches (15.24 cm). The mold was sealed and placed in a horizontal air flow, programmable oven programmed to increase the temperature from 40° C. to 95° C. over a 5 hour interval, hold the temperature at 95° C. for 3 hours, lower it to 60° C. over a 2 hour interval and then hold at 60° C. for 16 hours. After the mold was opened, the polymer sheet was cut using a diamond blade saw into 2 inch (5.1 centimeters) test squares.
The photochromic test squares prepared in Part A were tested for photochromic response on an optical bench. Prior to testing on the optical bench, the photochromic test squares were exposed to 365 nanometer ultraviolet light for about 15 minutes to activate the photochromic compounds and then placed in a 76° C. oven for about 15 minutes to bleach or inactivate the photochromic compounds. The test squares were then cooled to room temperature, exposed to fluorescent room lighting for at least 2 hours and then kept covered for at least 2 hours prior to testing on an optical bench maintained at 72° F. (22.2° C.). The bench was fitted with a 150 watt Xenon arc lamp, a remote controlled shutter, a copper sulfate bath acting as a heat sink for the arc lamp, a Schott WG-320 nm cut-off filter which removes short wavelength radiation; neutral density filter(s) and a sample holder in which the square to be tested was inserted. The power output of the optical bench, i.e., the dosage of light that the sample lens would be exposed to, was calibrated with a photochromic test square used as a reference standard. […] The UV-A detector was placed into the sample holder and the light output was measured. […]
A monitoring, collimated beam of light from a tungsten lamp was passed through the square at a small angle (approximately 30° ) normal to the square. After passing through the square, the light from the tungsten lamp was directed to a detector through Spectral Energy Corp. GM-200 monochromator set at the previously determined visible lambda max of the photochromic compound being measured. […]
Change in optical density (ΔOD) was determined by inserting a test square in the bleached state into the sample holder, adjusting the transmittance scale to 100% opening the shutter from the Xenon lamp to provide ultraviolet radiation to change the test square from the bleached state to an activated (i.e., darkened) state, measuring the transmittance in the activated state, and calculating the change in optical density according to the formula: ΔOD=log (100/%Ta), where %Ta is the percent transmittance in the activated state and the logarithm is to the base 10.
The Δ OD/Min, which represents the sensitivity of the photochromic compound's response to UV light, was measured over the first five (5) seconds of UV exposure, then expressed on a per minute basis. […]

[2] = lambda max (Vis) of activated form in test square polymerizates (Varian Cary 3 UV-Visible spectrophotometer); type: physicochemical; conditions: activated (colored) form in test square; BPA 2EO DMA / poly(ethylene glycol) 600 dimethacrylate polymer
Experimental: as §1
The Δ OD/Min, which represents the sensitivity of the photochromic compound's response to UV light, was measured over the first five (5) seconds of UV exposure, then expressed on a per minute basis. The saturation optical density (Δ OD@ Saturation) was taken under identical conditions as the Δ OD/Min, except UV exposure was continued for 15 minutes. The lambda max (Vis) is the wavelength in nanometers (nm) in the visible spectrum at which the maximum absorption of the activated (colored) form of the photochromic compound in a test square occurs. The lambda max (Vis) wavelength was determined by testing the photochromic test square polymerizates of Part A in a Varian Cary 3 UV-Visible spectrophotometer. The Bleach Rate (T 1/2) is the time interval in seconds for the absorbance of the activated form of the photochromic compound in the test squares to reach one half the highest absorbance at room temperature (72° F., 22.2° C.) after removal of the source of activating light.

Bleach Rate T 1/2 [1] | lambda max (Vis) [2] | Sensitivity ΔOD/min [1] | Structure (SMILES)
0.833 min | 492 nanometers | – | Cc1ccc2c3c(c4c(=O)oc(C(c5ccccc5)c5ccccc5)cc4c2c1)C=CC(c1ccccc1)(c1ccccc1)O3 [Example 1, 2,2-diphenyl-7-diphenylmethyl-10-methyl-2,5-dihydro-5-oxo-pyrano[3',4':3,4]naphtho[1,2-b]pyran]
3.03 min | 569 nanometers | 0.33 ΔOD/min | COc1ccc(C2(c3ccc(OC)cc3)C=Cc3c4c(c5cc(C)ccc5c3O2)C=C(C(c2ccccc2)c2ccccc2)OC4)cc1 [Example 3, 2,2-di(4-methoxyphenyl)-7-diphenylmethyl-10-methyl-2,5-dihydro-pyrano[3',4':3,4]naphtho[1,2-b]pyran]
4.68 min | 592 nanometers | 0.39 ΔOD/min | Cc1ccc2c3c(c4c(c2c1)C=C(C(c1ccccc1)c1ccccc1)OC4)C=CC(c1ccccc1)(c1ccc(N2CCOCC2)cc1)O3 (centres unmarked) [Example 4, 2-phenyl-2-(4-morpholinophenyl)-7-diphenylmethyl-10-methyl-2,5-dihydro-pyrano[3',4':3,4]naphtho[1,2-b]pyran]
